Patent publication US20220401573A1, “COMPOSITION AND METHOD FOR TREATMENT OF MULTIPLE SCLEROSIS” (Wuhan Vast Conduct Science Foundation CO., LTD., priority 2019, published 2022)

Test system: EAE mice
Test: Clinical scoring of MOG-induced EAE in mice
Assay type: in vivo, C57BL/6N female mice
Conditions: 10 mg/kg p.o., day 1 to day 28, positive control, FIG. 10
Procedure: C57BL/6N female mice, 7-9 weeks old, were used. Animals were housed and maintained in compliance with the regulations.
On Day 0, mice were grouped randomly by body weight, and then injected subcutaneously with 200 μg of myelin oligodendrocyte glycoprotein (MOG) peptide in complete Freund's adjuvant (CFA) into the right and left flank, 100 μl per site. Pertussis toxin (PTX) injected by i.p at 0 and 48 hours after MOG immunization. Compounds were given from day 1 to day 28 according to Table 2. The animals (n=10) were scored daily for clinical signs of EAE. At the end of the experiments, spinal cords were used for HE staining (n=5), and analysis of TNF-α, IL-17, IFN-γ by Elisa kit.
The animals were scored daily for clinical signs of EAE according to the Clinical scoring rubric for EAE (Table 3).

SMILES: C[C@]12C=CC(=O)C=C1CC[C@@H]1[C@@H]2C(=O)C[C@@]2(C)[C@H]1CC[C@]2(O)C(=O)CO [prednisone, Prednisone]
- clinical signs of EAE (clinical score): significantly reduced clinical signs of EAE from day 13th
